One assay addresses T1, RET(KD: 658-1114 G810R) (Homo sapiens, UniProt P07949, G810R).
T1 construct: 658-1114; expressed in transfected cells; host or cells: 293T.165 (293T cells, generated in-house)
T1 sequence (P07949 658-1114 G810R): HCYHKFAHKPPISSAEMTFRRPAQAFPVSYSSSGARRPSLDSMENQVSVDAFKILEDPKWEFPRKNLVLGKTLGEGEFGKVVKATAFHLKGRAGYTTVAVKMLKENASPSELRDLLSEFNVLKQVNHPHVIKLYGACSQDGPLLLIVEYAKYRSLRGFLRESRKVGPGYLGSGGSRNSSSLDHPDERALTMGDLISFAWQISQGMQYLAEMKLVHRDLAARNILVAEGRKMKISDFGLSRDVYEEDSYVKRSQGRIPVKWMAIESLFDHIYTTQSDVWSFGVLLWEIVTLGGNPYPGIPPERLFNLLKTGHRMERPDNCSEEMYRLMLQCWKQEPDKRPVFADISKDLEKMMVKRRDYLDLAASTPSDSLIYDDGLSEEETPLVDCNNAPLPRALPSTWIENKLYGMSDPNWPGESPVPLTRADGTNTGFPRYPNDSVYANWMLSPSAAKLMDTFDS
Briefly: HiBiT-Degradation, RET G810R degradation assay (Nano-Glo HiBiT Lytic), 293T.165 cells. In kind it is cell-based. Conditions: for Emax / DC50: 6.0 hours. In a few lines:
(§1)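 HEK293T lines expressing HiBiT-tagged RET kinase domain, wild-type (293T.144) or G810R (293T.165), treated 6 h in duplicate, 11-point half-log series from 10 μM top. Lytic HiBiT luminescence read; DC50 and Emax (% protein remaining) from dose-response curves.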
For orientation: With HiBiT, luminescence reflects the tagged protein that the partner subunit can reach.

The target in a further assay is T2, RET (658-1114) (Homo sapiens, UniProt P07949).
T2 construct: 658-1114; expressed in transfected cells; host or cells: 293T.144 (293T cells, generated in-house)
T2 sequence (P07949 658-1114): T1 sequence (P07949 658-1114 G810R) with R153G
Kind of assay: HiBiT-Degradation, RET wild-type degradation assay (Nano-Glo HiBiT Lytic), 293T.144 cells. Conditions: for DC50 / Emax: 6.0 hours. In kind it is cell-based. The essentials: as §1

Where [1] appears, read: % remaining protein, read-out: 293T.165 RET(KD: 658-1114 G810R) 6.0 hours (Emax).
Setting [2] is: half-maximal degradation concentration, read-out: 293T.165 RET(KD: 658-1114 G810R) 6.0 hours (DC50).
Where [3] appears, read: HiBiT-Degradation, read-out: 293T.165 RET(KD: 658-1114 G810R) 6.0 hours (DC50).
[4] abbreviates: HiBiT-Degradation, read-out: 293T.144 RET (658-1114) 6.0 hours (DC50).
[5] abbreviates: HiBiT-Degradation, read-out: 293T.144 RET (658-1114) 6.0 hours (Emax).
The mark [6] stands for this setting: % remaining protein, read-out: 293T.144 RET (658-1114) 6.0 hours (Emax).
[7] abbreviates: half-maximal degradation concentration, read-out: 293T.144 RET (658-1114) 6.0 hours (DC50).

Structures are written as SMILES. Positions count from the first letter of the chain named. Read-outs that look alike come from different tables or passages of the source.

In general, Emax refers to the maximal effect, on the per cent scale that the assay sets. A word on the DC50: it is the concentration at which degradation of the target reaches its halfway point. Turning to `N#Cc1cnn2cc(-c3cnn(C4CCN(C(=O)CC5(O)CCN(c6ccc(NC7CCC(=O)NC7=O)cc6F)CC5)CC4)c3)nc(-c3ccc(N4CCC(c5ncccn5)CC4)nc3)c12` (stereo not shown) [Compound 36, 6-[1-[1-[2-[1-[4-[(2,6-dioxo-3-piperidyl)amino]-2-fluoro-phenyl]-4-hydroxy-4-piperidyl]acetyl]-4-piperidyl]pyrazol-4-yl]-4-[6-(4-pyrimidin-2-yl-1-piperidyl)-3-pyridyl]pyrazolo[1,5-a]pyrazine-3-carbonitrile], the maximal response (Emax) at RET(KD: 658-1114 G810R) (setting [1]) and at RET (658-1114) (setting [5]) was under 30% each time. For the same compound, the DC50 on RET(KD: 658-1114 G810R) (setting [2]), at RET(KD: 658-1114 G810R) (setting [3]) and on RET (658-1114) (setting [4]) was under 50 nM throughout. For the same compound, the “293T.165 RET(KD: 658-1114 G810R) 6.0 hours (Emax)” value on RET(KD: 658-1114 G810R) (HiBiT-Degradation) is on record as “++++ (< 30% = ++++)”. In addition, the “293T.165 RET(KD: 658-1114 G810R) 6.0 hours (IP) [nM]” value at RET(KD: 658-1114 G810R) (HiBiT-Degradation) is recorded as “++++ (< 50 nM = ++++)”. The “293T.144 RET (658-1114) 6.0 hours (IP) [nM]” value at RET (658-1114) (HiBiT-Degradation) was “++++ (< 50 nM = ++++)”.

`CCC1(C(=O)NC2CCC2)CCN(c2ccc(-c3nc(-c4cnn([C@H]5C[C@H](CN6CCN(c7ccc(N[C@H]8CCC(=O)NC8=O)cc7F)CC6)C5)c4)cn4ncc(C#N)c34)cn2)CC1` [Compound 188, 1-[5-[3-cyano-6-[1-[3-[[4-[4-[[(3S)-2,6-dioxo-3-piperidyl]amino]-2-fluoro-phenyl]piperazin-1-yl]methyl]cyclobutyl]pyrazol-4-yl]pyrazolo[1,5-a]pyrazin-4-yl]-2-pyridyl]-N-cyclobutyl-4-ethyl-piperidine-4-carboxamide]: on RET(KD: 658-1114 G810R), the “293T.165 RET(KD: 658-1114 G810R) 6.0 hours (IP) [nM]” value was “++++ (<50 nM = ++++)”. The maximum response (Emax) at RET(KD: 658-1114 G810R) (setting [1]) is under 50%; on RET (658-1114) (setting [6]) it was under 30%. Moreover, the DC50 at RET(KD: 658-1114 G810R) (setting [2]) and on RET (658-1114) (setting [7]) was under 50 nM throughout. For the same compound, the “293T.144 RET (658-1114) 6.0 hours (IP) [nM]” value on RET (658-1114) is on record as “++++ (<50 nM = ++++)”.

For `COCC1(Cc2ccccn2)CCN(c2ccc(-c3nc(-c4cnn(C5CCN(C(=O)CN6CCC(c7ccc(NC8CCC(=O)NC8=O)cc7F)CC6)CC5)c4)cn4ncc(C#N)c34)cn2)CC1` (stereo not shown) [Compound 78, 6-[1-[1-[2-[4-[4-[(2,6-dioxo-3-piperidyl)amino]-2-fluoro-phenyl]-1-piperidyl]acetyl]-4-piperidyl]pyrazol-4-yl]-4-[6-[4-(methoxymethyl)-4-(2-pyridylmethyl)-1-piperidyl]-3-pyridyl]pyrazolo[1,5-a]pyrazine-3-carbonitrile], the Emax at RET(KD: 658-1114 G810R) (setting [1]) was under 30%; at RET(KD: 658-1114 G810R) (RET G810R, read-out: HiBiT-Degradation 293T.165 RET(KD: 658-1114 G810R) 6.0 hours (Emax)) it was under 30%; at RET (658-1114) (RET wild-type, read-out: HiBiT-Degradation 293T.144 RET (658-1114) 6.0 hours (Emax)), under 30%. The DC50 on RET(KD: 658-1114 G810R) (setting [2]) is under 100 nM; on RET(KD: 658-1114 G810R) (RET G810R, read-out: HiBiT-Degradation 293T.165 RET(KD: 658-1114 G810R) 6.0 hours (DC50)) it was under 100 nM; at RET (658-1114) (RET wild-type, read-out: HiBiT-Degradation 293T.144 RET (658-1114) 6.0 hours (DC50)) it was under 50 nM. Further, the “HiBiT-Degradation 293T.165 RET(KD: 658-1114 G810R) 6.0 hours (IP) [nM]” value at RET(KD: 658-1114 G810R) (RET G810R) was “++++ (< 50 nM = ++++)”. Further, on RET (658-1114) (RET wild-type), the “HiBiT-Degradation 293T.144 RET (658-1114) 6.0 hours (IP) [nM]” value was “++++ (< 50 nM = ++++)”.

`N#Cc1cnn2cc(-c3cnn([C@H]4CC[C@H](N5CCC(c6ccc(N[C@@H]7CCC(=O)NC7=O)cc6F)CC5)CC4)c3)nc(-c3ccc(N4CCC5(CC4)OCc4cccnc45)nc3)c12` (relative stereo) [Compound 149, 6-[1-[4-[4-[2-fluoro-4-[[rac-(3R)-2,6-dioxo-3-piperidyl]amino]phenyl]-1-piperidyl]cyclohexyl]pyrazol-4-yl]-4-(6-spiro[5H-furo[3,4-b]pyridine-7,4′-piperidine]-1′-yl-3-pyridyl)pyrazolo[1,5-a]pyrazine-3-carbonitrile]: on RET(KD: 658-1114 G810R), the “293T.165 RET(KD: 658-1114 G810R) 6.0 hours (IP) [nM]” value is listed as “++++ (<50 nM = ++++)”. In addition, the Emax on RET(KD: 658-1114 G810R) (setting [1]) and at RET (658-1114) (setting [6]) was under 30% each time. Besides, the DC50 at RET(KD: 658-1114 G810R) (setting [2]) and at RET (658-1114) (setting [7]) was under 50 nM in each case. Also, the “293T.144 RET (658-1114) 6.0 hours (IP) [nM]” value on RET (658-1114) is reported as “++++ (<50 nM = ++++)”.

Consider `N#Cc1cnn2cc(-c3ccc(N4CCN(C(=O)CC5(O)CCN(c6ccc(NC7CCC(=O)NC7=O)cc6F)CC5)CC4)cc3)nc(-c3ccc(N4CC5CC(C4)N5Cc4ccccc4)nc3)c12` (stereo not shown) [Compound 177, 4-(6-(6-benzyl-3,6-diazabicyclo[3.1.1]heptan-3-yl)pyridin-3-yl)-6-(4-(4-(2-(1-(4-((2,6-dioxopiperidin-3-yl)amino)-2-fluorophenyl)-4-hydroxypiperidin-4-yl)acetyl)piperazin-1-yl)phenyl)pyrazolo[1,5-a]pyrazine-3-carbonitrile], for which, at RET(KD: 658-1114 G810R), the “293T.165 RET(KD: 658-1114 G810R) 6.0 hours (IP) [nM]” value is “++++ (<50 nM = ++++)”. Also, the maximum response (Emax) at RET(KD: 658-1114 G810R) (setting [1]) and at RET (658-1114) (setting [6]) was under 30% in each case. The half-maximal degradation concentration (DC50) at RET(KD: 658-1114 G810R) (setting [2]) was under 100 nM; on RET (658-1114) (setting [7]), under 50 nM. Further, the “293T.144 RET (658-1114) 6.0 hours (IP) [nM]” value on RET (658-1114) is reported as “++++ (<50 nM = ++++)”.

Take `N#Cc1cnn2cc(-c3ccc(N4CCN(C(=O)CN5CCC(c6ccc(NC7CCC(=O)NC7=O)cc6F)CC5)CC4)cc3)cc(-c3ccc(N4CCN(C(=O)Cc5ccc(F)cn5)CC4)nc3)c12` (stereo not shown) [Compound 16, 6-[4-[4-[2-[4-[4-[(2,6-dioxo-3-piperidyl)amino]-2-fluoro-phenyl]-1-piperidyl]acetyl]piperazin-1-yl]phenyl]-4-[6-[4-[2-(5-fluoro-2-pyridyl)acetyl]piperazin-1-yl]-3-pyridyl]pyrazolo[1,5-a]pyridine-3-carbonitrile]: the Emax at RET(KD: 658-1114 G810R) (setting [1]) and on RET (658-1114) (setting [5]) was under 30% each time. For the same compound, the half-maximal degradation concentration (DC50) was under 100 nM on RET(KD: 658-1114 G810R) (setting [2]), under 100 nM on RET(KD: 658-1114 G810R) (setting [3]) and under 50 nM on RET (658-1114) (setting [4]). The “293T.165 RET(KD: 658-1114 G810R) 6.0 hours (Emax)” value at RET(KD: 658-1114 G810R) (HiBiT-Degradation) is recorded as “++++ (< 30% = ++++)”. Moreover, the “293T.165 RET(KD: 658-1114 G810R) 6.0 hours (IP) [nM]” value at RET(KD: 658-1114 G810R) (HiBiT-Degradation) is reported as “++++ (< 50 nM = ++++)”. Moreover, the “293T.144 RET (658-1114) 6.0 hours (IP) [nM]” value on RET (658-1114) (HiBiT-Degradation) was “++++ (< 50 nM = ++++)”.

As for `CCC1(C(=O)NC2CCC2)CCN(c2ccc(-c3nc(-c4cnn([C@H]5CC[C@H](N6CCC(c7ccc(NC8CCC(=O)NC8=O)cc7Cl)CC6)CC5)c4)cn4ncc(C#N)c34)cn2)CC1` (single isomer, unassigned) [Compound 133, 1-[5-[6-[1-[4-[4-[2-chloro-4-[(2,6-dioxo-3-piperidyl)amino]phenyl]-1-piperidyl]cyclohexyl]pyrazol-4-yl]-3-cyano-pyrazolo[1,5-a]pyrazin-4-yl]-2-pyridyl]-N-cyclobutyl-4-ethyl-piperidine-4-carboxamide], the Emax on RET(KD: 658-1114 G810R) (setting [1]) and on RET (658-1114) (setting [6]) was under 30% throughout. The half-maximal degradation concentration (DC50) on RET(KD: 658-1114 G810R) (setting [2]) and at RET (658-1114) (setting [7]) was under 50 nM each time.

As to `N#Cc1cnn2cc(-c3cnn([C@H]4CC[C@H](N5CCC(c6ccc(N[C@@H]7CCC(=O)NC7=O)cc6F)CC5)CC4)c3)nc(-c3ccc(N4CCC5(CC4)OCc4cccnc45)nc3)c12` (single isomer, unassigned) [Compound 180], at RET(KD: 658-1114 G810R), the “293T.165 RET(KD: 658-1114 G810R) 6.0 hours (IP) [nM]” value is recorded as “++++ (<50 nM = ++++)”. The Emax on RET(KD: 658-1114 G810R) (setting [1]) and at RET (658-1114) (setting [6]) was under 30% throughout. Further, the DC50 on RET(KD: 658-1114 G810R) (setting [2]) and at RET (658-1114) (setting [7]) was under 50 nM throughout. In addition, on RET (658-1114), the “293T.144 RET (658-1114) 6.0 hours (IP) [nM]” value was “++++ (<50 nM = ++++)”.
